In patent US9119884B2, “LLP2A-bisphosphonate conjugates for osteoporosis treatment” (The Regents of the University of California, priority 2010, dated 2015):

How the values were obtained:
[1] = test system: 10-week-old ovariectomized (OVX) mice; experiment: Ovariectomized (OVX) mouse model; assay type: in vivo; conditions: for maximum stress: femur three-point bending; for maximum stress / cortical bone thickness: single IV injection of conjugate or four weeks of PTH
Description: FIG. 21 depicts histomorphometric analyses of the 5th lumbar vertebral bodies after LLP2A-Ale treatment of 10-week-old ovariectomized (OVX) mice, showing increases in osteoblast numbers, activities and bone formation rate/bone surface (BFR/BS) post-treatment. Analyses included trabecular bone area (%), osteoblast surface (Ob/BS), mineralizing surface (MS/BS) activities and BFR/BS (P<0.05).
Representative fluorescent images from the trabecular bone at the 5th LVB (Top panel: white arrowheads illustrate osteoblasts; Bottom panel: yellow arrows illustrate double labeled trabecular bone surfaces).
FIG. 23 depicts histomorphometry analyses of the right mid-femurs included bone formation at the endosteal (Ec) or periosteal (Ps.) bone surfaces, and cortical bone thickness of 10-week-old ovariectomized (OVX) mice. […] Three-point bending was performed on left femurs to obtain maximum stress of the femurs.
Short yellow arrows illustrated double labeled endocortical bone surfaces. (a, p<0.05 versus Sham; b, P<0.05 vs. OVX+PBS, c, P<0.05 vs. OVX+LLP2A; d, P<0.05 vs. OVX+Ale. Data are represented as Mean±SD).

129SvJ mice = assay type: in vivo, mouse
NOD/SCID/MPSVII mice = experiment: huMSC transplantation with LLP2A-Ale in immunodeficient mice; assay type: in vivo, mouse; conditions: vertebral body, three weeks after single injection of huMSC with or without compound
Description: Human MSCs (huMSCs) were obtained and injected together with LLP2A-Ale to immunodeficient mice, NOD/SCID/mucopolysaccharidosis type VII (MPSVII). This mouse strain lacked the β-glucuronidase (GUSB) enzyme. The donor cells could be easily detected using biochemical detection of β-glucuronidase (See Meyerrose, T. E., et al., Stem Cells, 2007. 25(1): p. 220-7; Meyerrose, T. E., et al., Stem Cells, 2008. 26(7): p. 1713-22). At three-month of age, the mice received a single intravenous (i.v.) injection of either vehicle (100 μl PBS/mouse), huMSCs (5×10^5/100 μl/PBS/mouse), huMSCs+LLP2A (5 nM/mouse) or huMSCs+LLP2A-Ale (500 ng/mouse; total compound weight 3.5 μg, with alendronate concentration of 500 ng/mouse). The alendronate dose we used for the study was approximately one-fifth of the therapeutic dose for the treatment of osteoporosis (See Colon-Emeric, C. S., JAMA, 2006, 296(24): p. 2968-9; Ma, Y. L., et al., Endocrinology, 2003. 144(5): p. 2008-15). […] HuMSC, as shown by GUSB+red stain, were only present at the trabecular bone surface in the LLP2A-Ale-treated group (lower panel). There was no demonstrable GUSB activity in the lung, liver, kidney and LVB that received PBS (top panels) or huMSCs (middle panel). Cancellous bone mass in the vertebral body was—more than 40% higher in the group treated with MSC+LLP2A-Ale (cancellous bone volume, BV/TV 13.9±2.2%) compared to PBS (BV/TV 9.4±1.7%), MSC (BV/TV 10.2±1.9%) or MSC+LLP2A (BV/TV 10.5±0.5%) controls three weeks after a single injection of huMSC and LLP2A-Ale.
In FIG. 8, Three-month-old MSPVII mice received a single intravenous injection of either of PBS, huMSC (5×10^5) or huMSC+LLP2A or LLP2A-Ale. The mice were sacrificed 24 hours later. Following sacrifice, small portions of organ including lumbar vertebral bodies (LVB) were harvested and frozen in Optimal Cutting Temperature embedding media. The sections were stained using naphthol-AS-BI-β-Dglucuronide (GUSB) as a substrate. Representative sections from lung, liver, kidney and lumbar vertebral (LVB) trabecular bone regions were presented. […] Isolated GUSB-positive cells were also observed within bone marrow of the LVB in […] group.
The NOD-SCID MPSVII strain was the result of extensive backcrossing of the mutant GUSB allele from the B6.C-H-2^bm1/ByBirgus^mps/+ mouse onto the NOD/LtSz-scid background. Animals were bred and maintained at the Stem Cell Department of the UC Davis Medical Center under approved animal care protocols. Affected animals were generated by breeding mice heterozygous for the MPSVII mutation. Homozygous GUSB-deficient pups were identified at birth by biochemical analysis of toe tissue.
Serum levels of the amino terminal propeptide of type 1 procollagen (P1NP), osteocalcin and C-terminal telopeptides of type I collagen (CTX-I) were measured using mouse sandwich ELISA kits from Biomedical Technologies (Stroughton, Mass.) or Immunodiagnostic System (Fountain Hills, Ariz.). The manufacturer's protocols were followed and all samples were assayed in duplicate. A standard curve was generated from each kit and the absolute concentrations were extrapolated from the standard curve. The coefficients of variations (CVs) for inter-assay and intra-assay measurements were less than 10% for all assays and are similar to the manufacturer's references (Yao, W., et al., Arthritis Rheum, 2008, 58(6): p. 1674-86; Yao, W., et al., Arthritis Rheum, 2008, 58(11): p. 3485-3497).
After fixation in 4% paraformaldehyde, the right distal femurs, mid-femurs and the 5th lumbar vertebral bodies were dehydrated in graded concentrations of ethanol and xylene and embedded un-decalcified in methyl methacrylate. The frontal sections (8 μm thick) were cut using a vertical bed microtome (Leica/Jung 2265) and affixed to slides coated with a 2% gelatin solution. Unstained 8-μm-thick sections were used for assessing fluorochrome labeling and dynamic changes in bone. […]

integrin α4β1 = integrin α4β1 (Homo sapiens, UniProt P05556+P13612); conditions: cited from earlier work
[2] = test system: bone marrow cells undergoing osteogenic differentiation; experiment: Rainbow bead cell-binding assay; assay type: cell-based, mouse; conditions: cells cultured in osteogenic medium for 7 days, incubated with rainbow beads
Method: Mouse MSCs were purchased from Invitrogen (Cat#S1502-100), cultured in osteogenic medium for 7 days and incubated with rainbow beads for one hour. […] Original magnification 10× on the right and 20× on the left of the top panel.
A new color-encoding method that facilitates high-throughput screening of OBOC combinatorial libraries was developed. This method differs from the traditional methods used to monitor integrin expressions in the MSCs, i.e., the use of antibody-based fluorescence-activated cell sorting (FACS) or immunoblotting. In the present method, polymer beads displaying chemical compounds or families of compounds were stained with oil-based organic dyes that are used as coding tags. […] These rainbow beads were prepared in a multiplex manner such that each ligand reacted to one or a series of integrins that were coded one color, See FIG. 7 (Luo, J., et al., J Comb Chem, 2008, 10(4): p. 599-604). This rainbow bead technique was then applied to determine the integrin profile on the cell surfaces.
In FIG. 7, bone marrow cells were cultured in osteogenic medium for 7 days and incubated with rainbow beads. The purple beads that coded with LLP2A, the ligand with high affinity and specificity against α4β1, were covered with layers of cells identified by green arrows. […]

C57BL/6 mice = experiment: Guiding GFP-labeled mouse MSCs to bone; assay type: in vivo; conditions: for osteocalcin levels: 0.9 nmol/mouse I.P. one hour after GFP-MSC I.V.
Method: LLP2A-Ale or LLP2A-Ale (1) were dissolved in 0.9% normal saline and injected I.P. to the mice one hour after MSC at a final solution of 0.9 nmol/mouse. Mice were sacrificed either at 3 days or 3 weeks. Osteocalcin, a bone formation marker, was measured at both 3 days and 3 weeks post-treatments. The lumbar vertebral bodies from the 3-day treatment groups were frozen and sectioned with cryostat. The sections were then stained with anti-GFP antibody. The transplanted MSCs were stained in brown.

Chain of integrin α4β1 (P13612 34-1032): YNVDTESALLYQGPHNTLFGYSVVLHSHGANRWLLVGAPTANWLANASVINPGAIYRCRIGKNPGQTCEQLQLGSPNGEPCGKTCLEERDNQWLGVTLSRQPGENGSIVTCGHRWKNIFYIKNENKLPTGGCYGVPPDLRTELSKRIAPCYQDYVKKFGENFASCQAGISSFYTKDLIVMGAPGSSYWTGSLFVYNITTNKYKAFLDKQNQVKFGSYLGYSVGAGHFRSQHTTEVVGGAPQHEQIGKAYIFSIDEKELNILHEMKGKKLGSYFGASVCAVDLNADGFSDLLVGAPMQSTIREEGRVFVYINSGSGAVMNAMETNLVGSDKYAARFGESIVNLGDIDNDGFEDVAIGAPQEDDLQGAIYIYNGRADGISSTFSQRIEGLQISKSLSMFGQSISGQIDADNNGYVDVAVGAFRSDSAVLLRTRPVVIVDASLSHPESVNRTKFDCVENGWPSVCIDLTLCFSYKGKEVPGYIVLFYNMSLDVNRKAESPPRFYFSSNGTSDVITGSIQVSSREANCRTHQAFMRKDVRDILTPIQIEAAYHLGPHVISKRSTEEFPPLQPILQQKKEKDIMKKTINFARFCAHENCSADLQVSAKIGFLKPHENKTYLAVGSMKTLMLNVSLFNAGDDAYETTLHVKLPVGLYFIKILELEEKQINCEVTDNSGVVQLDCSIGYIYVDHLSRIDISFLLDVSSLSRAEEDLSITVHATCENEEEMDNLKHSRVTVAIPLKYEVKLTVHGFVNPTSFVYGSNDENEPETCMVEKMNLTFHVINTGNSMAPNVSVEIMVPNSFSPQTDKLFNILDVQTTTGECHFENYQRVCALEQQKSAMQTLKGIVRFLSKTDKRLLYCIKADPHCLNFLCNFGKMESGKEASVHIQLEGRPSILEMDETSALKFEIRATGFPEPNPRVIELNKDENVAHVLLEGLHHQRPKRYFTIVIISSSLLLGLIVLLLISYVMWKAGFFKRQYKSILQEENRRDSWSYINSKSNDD
Chain of integrin α4β1 (P05556 21-798): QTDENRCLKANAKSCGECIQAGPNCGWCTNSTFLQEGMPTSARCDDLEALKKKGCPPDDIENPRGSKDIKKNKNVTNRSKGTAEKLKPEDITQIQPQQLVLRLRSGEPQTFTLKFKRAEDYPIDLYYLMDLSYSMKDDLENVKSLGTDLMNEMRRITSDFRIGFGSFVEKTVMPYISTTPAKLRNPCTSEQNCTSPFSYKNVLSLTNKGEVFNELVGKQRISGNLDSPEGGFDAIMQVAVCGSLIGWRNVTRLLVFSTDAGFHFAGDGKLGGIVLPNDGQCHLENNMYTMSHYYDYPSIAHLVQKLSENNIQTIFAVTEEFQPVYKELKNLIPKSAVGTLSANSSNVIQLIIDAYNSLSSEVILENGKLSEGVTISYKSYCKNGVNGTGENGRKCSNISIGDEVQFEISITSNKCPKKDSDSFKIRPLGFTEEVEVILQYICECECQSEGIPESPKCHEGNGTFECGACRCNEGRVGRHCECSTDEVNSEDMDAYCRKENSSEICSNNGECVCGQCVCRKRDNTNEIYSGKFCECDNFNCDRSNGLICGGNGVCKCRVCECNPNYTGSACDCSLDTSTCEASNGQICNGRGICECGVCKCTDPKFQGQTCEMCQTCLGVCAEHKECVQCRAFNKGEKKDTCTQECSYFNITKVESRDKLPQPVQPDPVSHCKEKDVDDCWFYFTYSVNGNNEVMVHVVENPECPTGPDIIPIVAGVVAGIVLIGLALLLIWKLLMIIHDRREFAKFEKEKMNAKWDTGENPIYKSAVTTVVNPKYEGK

NCCCC(O)(P(=O)(O)O)P(=O)(O)O [Ale, Alendronate, reference compound]
maximum stress [1]: not significantly altered
cortical bone thickness ([1]; mid-femur): not significantly altered

LLP2A: bisaryl urea peptidomimetic, highly potent and selective ligand for the activated form of α4β1 integrin [reference compound]
bone formation rate at endocortical and periosteal surfaces of the mid-femurs (129SvJ mice; four weeks after injections): significantly increased
proliferating cell populations (BrdU) (129SvJ mice; two days after i.v. injection, lumbar vertebral sections): increased the number of proliferating cell populations within the marrow cavity
cancellous bone volume, BV/TV (NOD/SCID/MPSVII mice): 10.5±0.5%
maximum stress [1]: not significantly altered
cortical bone thickness ([1]; mid-femur): not significantly altered
IC50 (integrin α4β1): 2 pM
cell binding to ligand-coded rainbow beads (affinity) [2]: high affinity

LLP2A-Alendronate (1) [LLP2A-Ale (1)]
location of transplanted MSCs (anti-GFP staining) (C57BL/6 mice; lumbar vertebral bodies, three days): observed within bone marrow and adjacent to the trabecular bone surfaces
osteocalcin levels (C57BL/6 mice; three days): significantly increased
osteocalcin levels (C57BL/6 mice; three weeks): significantly increased

B1: PTH: PTH, comparator treatment given for four weeks in OVX mice (peptide, UniProt P01270 32-115, looked up)
Parathyroid hormone: SVSEIQLMHNLGKHLNSMERVEWLRKKLQDVHNFVALGAPLAPRDAGSQRPRKKEDNVLVESHEKSLGEADKADVNVLTKAKSQ
modifications: Parathyroid hormone
maximum stress [1]: not significantly altered
endocortical bone formation ([1]; mid-femur, vs OVX): increases
cortical bone thickness ([1]; mid-femur): not significantly altered
